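Growth conditions: 96-well plates. Treatment: test compound, 48 hours, 5 concentrations. Analysis: linear interpolation between bracketing concentrations; unreached endpoints set to highest concentration. Here, GI50 denotes the concentration required for 50% inhibition of growth.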 Calls of active or inactive are those of the source. Cut-off read from the data, not from the text of the source: active = GI50 up to about 1.1 µM and inactive = higher.
Assays:
Assay in all cases: inhibition of tumour cell growth, NCI panel, 48 h
[1] = test system: SK-MEL-5
[2] = test system: SNB-19
[3] = test system: U-251
[4] = test system: LOX IMVI
[5] = test system: RPMI-8226
[6] = test system: SR
[7] = test system: HCC 2998
[8] = test system: SK-MEL-2
[9] = test system: M14
[10] = test system: SW-620
[11] = test system: CAKI-1
[12] = test system: TK-10
[13] = test system: SK-MEL-28
[14] = test system: SF-268
[15] = test system: SNB-75
[16] = test system: HL-60

Measured: GI50

O=C(N/C=C/C=C/Sc1ccccc1)OCc1ccccc1
inactive: [1] 17.7 µM | [2] 33.3 µM | [3] 19.3 µM | [4] 17.5 µM | [5] 18.7 µM | [6] 36.3 µM | [7] 20.1 µM | [8] > 10 µM | [9] 18.5 µM | [10] 17.7 µM | [11] 20.3 µM | [12] 24.3 µM | [13] 18.7 µM | [14] 17.5 µM | [15] 21.5 µM | [16] 8.83 µM

N#Cc1cccc(-n2[nH]c(=O)ccc2=O)c1
inactive: [1] > 100 µM | [2] > 100 µM | [3] > 100 µM | [5] > 100 µM | [6] > 100 µM | [7] > 100 µM | [8] > 100 µM | [9] > 100 µM | [10] > 100 µM | [11] > 100 µM | [12] > 100 µM | [13] > 100 µM | [14] > 100 µM | [15] 59.7 µM | [16] > 100 µM

Cc1oc2c(C)c3oc(=O)cc(C)c3cc2c1CNC(=O)[C@@H]1OCCOCCOCCOCCOCCOC1C(=O)O (stereo not given in full)
inactive: [1] > 100 µM | [2] > 100 µM | [3] > 100 µM | [4] > 100 µM | [5] > 100 µM | [6] > 100 µM | [7] > 100 µM | [9] 12.5 µM | [10] > 100 µM | [11] > 100 µM | [12] > 100 µM | [14] > 100 µM | [15] > 100 µM | [16] > 100 µM

Cc1ccc(C(=O)O)cc1NC(=O)c1cc(/C=C/c2ccccc2)[nH]c(=S)n1
inactive: [1] > 100 µM | [2] > 100 µM | [3] > 100 µM | [4] > 100 µM | [5] > 44.1 µM | [6] > 100 µM | [7] > 100 µM | [9] > 100 µM | [10] > 28.9 µM | [11] > 100 µM | [12] > 100 µM | [13] > 100 µM | [14] > 100 µM | [15] > 100 µM | [16] > 69 µM

O=[N+]([O-])c1ccc(-c2noc(-c3ccccc3)c2C2=NCCN2)cc1
inactive: [1] 12.9 µM | [2] 53.2 µM | [3] 84.5 µM | [4] 71 µM | [5] > 100 µM | [6] 81.8 µM | [7] > 100 µM | [8] > 100 µM | [9] 87.9 µM | [10] > 100 µM | [11] 40.3 µM | [13] > 100 µM | [14] 63.2 µM | [15] 68.5 µM | [16] 55.3 µM
